Results reported in publication PMC4286029 (Inflammation Research, 2014).

What was measured:
PDGFRα = molecular target: T1, PDGFRα (Homo sapiens, UniProt P16234); test: KinaseProfiler selectivity: PDGFRα; format: biochemical
T1 construct: purchased Millipore Co. Ltd. (KinaseProfiler service)
Experimental: (§1) […]; The selectivity of JTE-052 for other kinases was assessed using KinaseProfiler™ (Millipore Co. Ltd.). […].

KDR = molecular target: T2, KDR (Homo sapiens, UniProt P35968); test: KinaseProfiler selectivity: KDR; format: biochemical
T2 construct: purchased Millipore Co. Ltd. (KinaseProfiler service)
Experimental: as §1

SAPK2b = molecular target: T3, SAPK2b (Homo sapiens, UniProt Q15759); test: KinaseProfiler selectivity: SAPK2b; format: biochemical
T3 construct: purchased Millipore Co. Ltd. (KinaseProfiler service)
Experimental: as §1

p70S6 K = molecular target: T4, p70S6 K (Homo sapiens, UniProt P23443); test: KinaseProfiler selectivity: p70S6 K; format: biochemical
T4 construct: purchased Millipore Co. Ltd. (KinaseProfiler service)
Experimental: as §1

PKCβI = molecular target: T5, PKCβI (Homo sapiens, UniProt P05771); test: KinaseProfiler selectivity: PKCβI; format: biochemical
T5 construct: purchased Millipore Co. Ltd. (KinaseProfiler service)
Experimental: as §1

PDGFRβ = molecular target: T6, PDGFRβ (Homo sapiens, UniProt P09619); test: KinaseProfiler selectivity: PDGFRβ; format: biochemical
T6 construct: purchased Millipore Co. Ltd. (KinaseProfiler service)
Experimental: as §1

IR = molecular target: T7, IR (Homo sapiens, UniProt P06213); test: KinaseProfiler selectivity: IR; format: biochemical
T7 construct: purchased Millipore Co. Ltd. (KinaseProfiler service)
Experimental: as §1

Met = molecular target: T8, Met (Homo sapiens, UniProt P08581); test: KinaseProfiler selectivity: Met; format: biochemical
T8 construct: purchased Millipore Co. Ltd. (KinaseProfiler service)
Experimental: as §1

Lck = molecular target: T9, Lck (Homo sapiens, UniProt P06239); test: KinaseProfiler selectivity: Lck; format: biochemical
T9 construct: purchased Millipore Co. Ltd. (KinaseProfiler service)
Experimental: as §1

[1] = tested on: kinases in KinaseProfiler; test: KinaseProfiler panel as a whole (selectivity for other kinases); format: biochemical; conditions: concentration of 1,000 nM
Experimental: as §1

PKCγ = molecular target: T10, PKCγ (Homo sapiens, UniProt P05129); test: KinaseProfiler selectivity: PKCγ; format: biochemical
T10 construct: purchased Millipore Co. Ltd. (KinaseProfiler service)
Experimental: as §1

SAPK2a = molecular target: T11, SAPK2a (Homo sapiens, UniProt Q16539); test: KinaseProfiler selectivity: SAPK2a; format: biochemical
T11 construct: purchased Millipore Co. Ltd. (KinaseProfiler service)
Experimental: as §1

JNK1α1 = molecular target: T12, JNK1α1 (Homo sapiens, UniProt P45983); test: KinaseProfiler selectivity: JNK1α1; format: biochemical
T12 construct: purchased Millipore Co. Ltd. (KinaseProfiler service)
Experimental: as §1

SGK = molecular target: T13, SGK (Homo sapiens, UniProt O00141); test: KinaseProfiler selectivity: SGK; format: biochemical
T13 construct: purchased Millipore Co. Ltd. (KinaseProfiler service)
Experimental: as §1

MEK1 = molecular target: T14, MEK1 (Homo sapiens, UniProt Q02750); test: KinaseProfiler selectivity: MEK1; format: biochemical
T14 construct: purchased Millipore Co. Ltd. (KinaseProfiler service)
Experimental: as §1

[2] = tested on: rat collagen-induced arthritis model; test: Collagen-induced arthritis in rats; format: in vivo, Lewis rats
Experimental: CIA was induced in rats as previously described with some modifications. Briefly, type II collagen (Collagen Research Center, Saitama, Japan) was dissolved in 0.01 M acetic acid at 2 mg/mL, and the solution was emulsified in an equal volume of Freund’s incomplete adjuvant (Difco Laboratories, Detroit, MI). Lewis rats were immunized with 1 mL of the emulsion (1 mg of type II collagen) via ten intradermal injections on the back under anesthesia. The rats were then challenged with 0.2 mL of the emulsion injected into the base of the tail on day 8 under anesthesia. The test drugs were given orally once daily from day 1 to day 21 (preventive administration) or from day 15 to day 28 (therapeutic administration). After arthritis induction, the hind paw volume was measured by a water displacement method using a plethysmometer (Muromachi Kikai Co. Ltd., Tokyo, Japan). On day 22 or day 29, the rats were euthanized, and their hind paws were excised and X-rayed or processed for histological evaluation. Radiographs of the right hindlimbs were taken using a microfocal cone-beam X-ray CT scanner (MCT-CB100MF; Hitachi Medical Corporation, Tokyo, Japan). The severity of bone destruction was scored on a 3-point scale ranging from 0 to 2 for the following five joints: second metatarsal—second intertarsal joint, third metatarsal—third intertarsal joint, talus—central intertarsal joint, calcaneus—fourth intertarsal joint, and astragalo—tibial joint. For histological analysis, the formalin-fixed left hindlimbs were sectioned and stained with hematoxylin and eosin. The histology of the tarsal joints was evaluated by assessing the following parameters defined in the preliminary examination: inflammatory cell infiltration, synovial cell hyperplasia, cartilage destruction, and bone destruction. The severity of each histological change was scored on a 5-point scale ranging from 0 to 4. (Score 0: normal; Score 1: minimal, solitary (and very small) lesion; Score 2: slight, focal (and small) lesion; Score 3: moderate, scattered lesion; and Score 4: severe, extensive lesion).
(§2) . The hind paw volume (a) and body weight (b) were measured periodically. Images of hematoxylin and eosin staining (c) and radiographs of hindlimbs (e) are shown. Histological change (d) and radiographical change (f) were scored. The results are expressed as mean ± SD. ^# p < 0.05, ^## p < 0.01, versus vehicle by the Steel test
as §2, with “SD. *p < 0.05, **p < 0.01, versus vehicle by Dunnett’s test.” for “SD.”

PKCζ = molecular target: T15, PKCζ (Homo sapiens, UniProt Q05513); test: KinaseProfiler selectivity: PKCζ; format: biochemical
T15 construct: purchased Millipore Co. Ltd. (KinaseProfiler service)
Experimental: as §1

[3] = Cytotoxicity: fibroblast (NHLF) proliferation ([3H]thymidine); conditions: human, normal human lung fibroblasts (NHLF)
Experimental: For determination of cytotoxicity, fibroblast proliferation was measured.

CDK2/cyclinA = molecular target: T16, CDK2/cyclinA (Homo sapiens, UniProt P24941); test: KinaseProfiler selectivity: CDK2/cyclinA; format: biochemical
T16 construct: purchased Millipore Co. Ltd. (KinaseProfiler service)
Experimental: as §1

GSK3β = molecular target: T17, GSK3β (Homo sapiens, UniProt P49841); test: KinaseProfiler selectivity: GSK3β; format: biochemical
T17 construct: purchased Millipore Co. Ltd. (KinaseProfiler service)
Experimental: as §1

Abl = molecular target: T18, Abl (Homo sapiens, UniProt P00519); test: KinaseProfiler selectivity: Abl; format: biochemical
T18 construct: purchased Millipore Co. Ltd. (KinaseProfiler service)
Experimental: as §1

MAPK2 = molecular target: T19, MAPK2 (Homo sapiens, UniProt P28482); test: KinaseProfiler selectivity: MAPK2; format: biochemical
T19 construct: purchased Millipore Co. Ltd. (KinaseProfiler service)
Experimental: as §1

FGFR3 = molecular target: T20, FGFR3 (Homo sapiens, UniProt P22607); test: KinaseProfiler selectivity: FGFR3; format: biochemical
T20 construct: purchased Millipore Co. Ltd. (KinaseProfiler service)
Experimental: as §1

PKBα = molecular target: T21, PKBα (Homo sapiens, UniProt P31749); test: KinaseProfiler selectivity: PKBα; format: biochemical
T21 construct: purchased Millipore Co. Ltd. (KinaseProfiler service)
Experimental: as §1

Syk = molecular target: T22, Syk (Homo sapiens, UniProt P43405); test: KinaseProfiler selectivity: Syk; format: biochemical
T22 construct: purchased Millipore Co. Ltd. (KinaseProfiler service)
Experimental: as §1

SAPK3 = molecular target: T23, SAPK3 (Homo sapiens, UniProt P53778); test: KinaseProfiler selectivity: SAPK3; format: biochemical
T23 construct: purchased Millipore Co. Ltd. (KinaseProfiler service)
Experimental: as §1

Plk1 = molecular target: T24, Plk1 (Homo sapiens, UniProt P53350); test: KinaseProfiler selectivity: Plk1; format: biochemical
T24 construct: purchased Millipore Co. Ltd. (KinaseProfiler service)
Experimental: as §1

c-RAF = molecular target: T25, c-RAF (Homo sapiens, UniProt P04049); test: KinaseProfiler selectivity: c-RAF; format: biochemical
T25 construct: purchased Millipore Co. Ltd. (KinaseProfiler service)
Experimental: as §1

CHK1 = molecular target: T26, CHK1 (Homo sapiens, UniProt O14757); test: KinaseProfiler selectivity: CHK1; format: biochemical
T26 construct: purchased Millipore Co. Ltd. (KinaseProfiler service)
Experimental: as §1

T24 sequence (P53350 whole entry, species assumed): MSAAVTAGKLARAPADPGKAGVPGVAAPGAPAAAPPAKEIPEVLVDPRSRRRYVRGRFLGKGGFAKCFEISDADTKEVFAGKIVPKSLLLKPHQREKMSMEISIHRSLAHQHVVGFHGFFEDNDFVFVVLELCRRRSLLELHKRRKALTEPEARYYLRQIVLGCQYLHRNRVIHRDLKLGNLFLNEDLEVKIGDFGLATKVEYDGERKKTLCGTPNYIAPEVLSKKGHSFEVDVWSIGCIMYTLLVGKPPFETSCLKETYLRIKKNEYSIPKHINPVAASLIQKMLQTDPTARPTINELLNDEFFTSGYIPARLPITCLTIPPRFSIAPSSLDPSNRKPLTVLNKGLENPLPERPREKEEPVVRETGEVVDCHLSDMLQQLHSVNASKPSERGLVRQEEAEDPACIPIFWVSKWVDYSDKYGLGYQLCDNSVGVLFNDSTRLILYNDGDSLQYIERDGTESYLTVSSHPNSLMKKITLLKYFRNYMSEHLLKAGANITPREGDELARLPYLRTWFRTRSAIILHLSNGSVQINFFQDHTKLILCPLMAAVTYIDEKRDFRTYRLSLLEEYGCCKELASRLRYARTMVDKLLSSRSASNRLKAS
T7 sequence (P06213 28-1382): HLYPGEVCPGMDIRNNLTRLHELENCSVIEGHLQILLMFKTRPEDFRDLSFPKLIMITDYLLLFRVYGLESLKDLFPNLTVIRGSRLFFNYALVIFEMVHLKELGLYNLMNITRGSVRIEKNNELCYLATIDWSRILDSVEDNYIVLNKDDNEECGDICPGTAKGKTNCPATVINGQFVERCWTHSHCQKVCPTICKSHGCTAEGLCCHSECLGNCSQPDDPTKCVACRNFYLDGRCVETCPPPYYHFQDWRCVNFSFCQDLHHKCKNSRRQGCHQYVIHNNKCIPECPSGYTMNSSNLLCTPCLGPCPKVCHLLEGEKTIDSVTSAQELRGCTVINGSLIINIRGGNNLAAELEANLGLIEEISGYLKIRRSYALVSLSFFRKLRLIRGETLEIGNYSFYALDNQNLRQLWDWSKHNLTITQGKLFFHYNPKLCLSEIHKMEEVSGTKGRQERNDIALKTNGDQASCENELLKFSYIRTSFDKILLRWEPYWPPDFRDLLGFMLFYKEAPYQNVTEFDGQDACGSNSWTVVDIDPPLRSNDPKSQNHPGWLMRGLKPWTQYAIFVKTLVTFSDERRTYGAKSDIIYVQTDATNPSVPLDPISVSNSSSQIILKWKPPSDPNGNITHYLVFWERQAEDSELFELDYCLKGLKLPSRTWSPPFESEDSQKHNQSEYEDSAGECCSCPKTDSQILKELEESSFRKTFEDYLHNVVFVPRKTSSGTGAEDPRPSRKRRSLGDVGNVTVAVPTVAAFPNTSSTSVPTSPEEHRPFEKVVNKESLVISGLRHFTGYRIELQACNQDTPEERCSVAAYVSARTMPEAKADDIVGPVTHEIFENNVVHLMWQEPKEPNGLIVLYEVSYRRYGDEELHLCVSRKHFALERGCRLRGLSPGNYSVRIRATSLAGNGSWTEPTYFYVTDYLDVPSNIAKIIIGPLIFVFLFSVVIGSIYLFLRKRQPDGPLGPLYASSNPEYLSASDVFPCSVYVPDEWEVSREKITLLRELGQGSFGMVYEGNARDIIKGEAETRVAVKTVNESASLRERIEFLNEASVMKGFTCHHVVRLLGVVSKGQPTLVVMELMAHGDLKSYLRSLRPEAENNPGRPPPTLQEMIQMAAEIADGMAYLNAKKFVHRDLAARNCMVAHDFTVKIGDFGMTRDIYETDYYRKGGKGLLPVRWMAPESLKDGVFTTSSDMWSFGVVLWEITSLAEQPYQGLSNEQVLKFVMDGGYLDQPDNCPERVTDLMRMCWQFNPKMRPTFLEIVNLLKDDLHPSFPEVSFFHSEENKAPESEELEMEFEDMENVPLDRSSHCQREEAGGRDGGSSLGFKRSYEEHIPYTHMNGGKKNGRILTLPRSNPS
T11 sequence (Q16539 whole entry, species assumed): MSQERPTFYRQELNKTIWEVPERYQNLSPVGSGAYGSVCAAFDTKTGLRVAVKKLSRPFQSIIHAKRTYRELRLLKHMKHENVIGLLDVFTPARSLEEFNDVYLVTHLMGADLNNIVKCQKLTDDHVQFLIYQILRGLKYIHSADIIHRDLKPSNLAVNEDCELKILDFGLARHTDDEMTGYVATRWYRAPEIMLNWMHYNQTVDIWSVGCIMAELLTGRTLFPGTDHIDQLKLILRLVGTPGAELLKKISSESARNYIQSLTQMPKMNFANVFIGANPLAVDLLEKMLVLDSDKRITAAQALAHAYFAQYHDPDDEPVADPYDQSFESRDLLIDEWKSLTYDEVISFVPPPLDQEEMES
T18 sequence (P00519 whole entry, species assumed): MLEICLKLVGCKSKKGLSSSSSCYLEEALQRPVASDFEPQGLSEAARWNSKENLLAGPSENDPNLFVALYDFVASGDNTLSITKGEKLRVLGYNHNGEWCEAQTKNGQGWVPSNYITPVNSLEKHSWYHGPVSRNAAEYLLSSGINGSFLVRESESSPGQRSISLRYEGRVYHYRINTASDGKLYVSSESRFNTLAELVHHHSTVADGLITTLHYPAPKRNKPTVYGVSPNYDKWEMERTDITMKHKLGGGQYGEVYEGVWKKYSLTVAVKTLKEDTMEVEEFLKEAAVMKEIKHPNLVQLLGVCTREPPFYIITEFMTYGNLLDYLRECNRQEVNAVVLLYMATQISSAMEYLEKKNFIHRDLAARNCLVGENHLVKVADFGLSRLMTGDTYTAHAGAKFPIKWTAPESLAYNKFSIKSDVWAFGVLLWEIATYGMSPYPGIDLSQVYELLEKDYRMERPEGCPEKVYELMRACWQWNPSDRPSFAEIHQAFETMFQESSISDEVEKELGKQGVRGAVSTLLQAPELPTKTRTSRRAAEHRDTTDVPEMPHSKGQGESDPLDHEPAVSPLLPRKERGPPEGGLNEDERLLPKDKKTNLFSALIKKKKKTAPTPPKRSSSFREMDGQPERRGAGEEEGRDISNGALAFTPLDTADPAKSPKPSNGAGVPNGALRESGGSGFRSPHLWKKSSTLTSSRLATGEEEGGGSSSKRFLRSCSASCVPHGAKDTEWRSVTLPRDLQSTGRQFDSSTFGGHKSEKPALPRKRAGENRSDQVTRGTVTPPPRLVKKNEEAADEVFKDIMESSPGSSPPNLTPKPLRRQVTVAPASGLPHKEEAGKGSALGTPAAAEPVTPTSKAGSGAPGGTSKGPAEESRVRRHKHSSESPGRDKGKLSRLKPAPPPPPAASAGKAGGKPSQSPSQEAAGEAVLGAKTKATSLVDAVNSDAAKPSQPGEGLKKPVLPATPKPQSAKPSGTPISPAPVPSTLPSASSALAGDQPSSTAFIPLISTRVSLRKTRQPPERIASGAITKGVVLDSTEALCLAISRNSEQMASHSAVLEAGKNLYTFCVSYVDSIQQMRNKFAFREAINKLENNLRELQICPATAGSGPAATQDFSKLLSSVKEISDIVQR
T14 sequence (Q02750 whole entry, species assumed): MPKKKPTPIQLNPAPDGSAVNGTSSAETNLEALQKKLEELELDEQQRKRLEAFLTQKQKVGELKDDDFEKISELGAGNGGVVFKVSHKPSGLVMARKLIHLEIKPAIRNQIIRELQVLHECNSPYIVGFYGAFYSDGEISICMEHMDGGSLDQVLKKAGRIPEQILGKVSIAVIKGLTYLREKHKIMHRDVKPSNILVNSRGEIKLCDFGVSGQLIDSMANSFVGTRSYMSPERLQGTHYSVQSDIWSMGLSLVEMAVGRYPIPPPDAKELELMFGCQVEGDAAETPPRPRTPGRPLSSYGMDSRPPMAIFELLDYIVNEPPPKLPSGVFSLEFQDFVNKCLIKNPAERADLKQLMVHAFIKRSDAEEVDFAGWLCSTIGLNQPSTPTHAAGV
T12 sequence (P45983 1-384 isoform P45983-2, species assumed): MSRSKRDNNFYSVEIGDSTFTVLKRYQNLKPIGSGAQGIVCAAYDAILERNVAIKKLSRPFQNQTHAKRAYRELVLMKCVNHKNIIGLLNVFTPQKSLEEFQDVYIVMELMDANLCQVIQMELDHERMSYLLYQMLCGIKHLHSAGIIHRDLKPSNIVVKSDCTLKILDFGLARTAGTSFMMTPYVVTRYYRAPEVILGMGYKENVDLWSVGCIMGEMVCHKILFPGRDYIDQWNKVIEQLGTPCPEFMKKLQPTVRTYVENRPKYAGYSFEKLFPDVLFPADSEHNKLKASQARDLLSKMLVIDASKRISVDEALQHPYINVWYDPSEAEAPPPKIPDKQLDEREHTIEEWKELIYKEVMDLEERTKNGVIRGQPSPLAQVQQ

C[C@H]1CN(C(=O)CC#N)[C@]12CCN(c1ncnc3[nH]ccc13)C2 [JTE-052]
IC50 (PDGFRα): > 1000 nM | IC50 (KDR): > 1000 nM | IC50 (SAPK2b): > 1000 nM | IC50 (p70S6 K): > 1000 nM | IC50 (PKCβI): > 1000 nM | IC50 (PDGFRβ): > 1000 nM | IC50 (IR): > 1000 nM | IC50 (Met): > 1000 nM | IC50 (Lck): > 1000 nM | inhibition of other kinases in KinaseProfiler [1]: did not inhibit any of the kinases even at the concentration of 1,000 nM, except for ROCK-II | IC50 (PKCγ): > 1000 nM | IC50 (SAPK2a): > 1000 nM | IC50 (JNK1α1): > 1000 nM | IC50 (SGK): > 1000 nM | IC50 (MEK1): > 1000 nM | effect on bone and cartilage destruction (radiographic, histological), preventive administration ([2]; oral once daily from day 1): inhibited radiographic and histological changes of bone destruction and cartilage destruction | effect on hind paw swelling and joint inflammation, preventive administration ([2]; oral once daily from day 1, JTE-052 0.1, 1, 10 mg/kg, MTX 0.3 mg/kg): prevented the development of hind paw swelling | IC50 (PKCζ): > 1000 nM | IC50 at 3 days [3]: > 10000 nM | IC50 (CDK2/cyclinA): > 1000 nM | IC50 (GSK3β): > 1000 nM | IC50 (Abl): > 1000 nM | IC50 (MAPK2): > 1000 nM | IC50 (FGFR3): > 1000 nM | IC50 (PKBα): > 1000 nM | IC50 (Syk): > 1000 nM | IC50 (SAPK3): > 1000 nM | IC50 (Plk1): > 1000 nM | IC50 (c-RAF): > 1000 nM | IC50 (CHK1): > 1000 nM
